Where a name gives a salt, the structure may show the parent alone.
Biological target: T1, human HPK1 (MAP4K1) (Homo sapiens, UniProt Q92918)
T1 construct: Recombinant human HPK1 kinase domain was obtained from ThermoFisher (Cat. #PV6357) and SignalChem (Cat. #M23-11G); purchased ThermoFisher; SignalChem PV6357; M23-11G
T1 sequence (Q92918 17-274 limits assumed): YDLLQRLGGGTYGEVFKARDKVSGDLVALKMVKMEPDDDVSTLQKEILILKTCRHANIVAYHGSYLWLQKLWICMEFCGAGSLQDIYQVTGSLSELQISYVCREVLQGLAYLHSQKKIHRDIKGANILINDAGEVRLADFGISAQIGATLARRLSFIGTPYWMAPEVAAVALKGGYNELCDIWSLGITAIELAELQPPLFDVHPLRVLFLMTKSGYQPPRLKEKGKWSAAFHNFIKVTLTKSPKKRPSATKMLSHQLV
Experiment: Biochemical assay for activity against HPK1 (ADP-Glo, MBP substrate)
Conditions: recombinant human HPK1 kinase domain, 1 nM enzyme, ADP-Glo luminescence
Summary of the method: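 IC50s come from ADP-Glo luminescence after a 2 h room-temperature reaction phosphorylating MBP in the presence of ATP. Compound was first preincubated 15 min with 1 nM HPK1 kinase domain, human recombinant. Buffer: 50 mM HEPES pH 7.5, 150 mM NaCl, 3 mM TCEP, 10 mM MgCl2, 0.005% Tween-20, 0.01% BSA.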

| Structure (SMILES) | IC50 [nM] |
| --- | --- |
| COc1cc2c(cc1Nc1ncc3cnn(C[C@@H]4CCC(C)(C)N4C(C)=O)c3n1)CN(C)CC2 [Example 176, 1-[(5S)-5-[[6-[(6-methoxy-2-methyl-3,4-dihydro-1H-isoquinolin-7-yl)amino]pyrazolo[3,4-d]pyrimidin-1-yl]ymethyl]-2,2-dimethyl-pyrrolidin-1-yl]ethenone] | < 100 |
| COc1nc2c(cc1Nc1ncc3cnn(C[C@@H]4CCC(C)(C)N4C(C)=O)c3n1)CN(C)CC2 [Example 177, 1-[(5S)-5-[[6-[(2-methoxy-6-methyl-7,8-dihydro-5H-1,6-naphthyridin-3-yl)amino]pyrazolo[3,4-d]pyrimidin-1-yl]methyl]-2,2-dimethyl-pyrrolidin-1-yl]ethenone] | < 100 |
| COc1cc2c(cc1Nc1ncc3cnn(C[C@@H]4CCCN4C(C)=O)c3n1)C(C)(C)N(C)CC2 [Example 178, (S)-1-(2-((6-((6-methoxy-1,1,2-trimethyl-1,2,3,4-tetrahydroisoquinolin-7-yl)amino)-1H-pyrazolo[3,4-d]pyrimidin-1-yl)methyl)pyrrolidin-1-yl)ethan-1-one] | < 100 |
| CN1CCc2c(cc(Nc3ncc4cnn([C@H]5CC[C@@H](O)CC5)c4n3)cc2C(F)(F)F)C1 [Example 179, (1s,4s)-4-(6-((2-methyl-5-(trifluoromethyl)-1,2,3,4-tetrahydroisoquinolin-7-yl)amino)-1H-pyrazolo[3,4-d]pyrimidin-1-yl)cyclohexan-1-ol] | < 100 |
| CN1CCc2c(cc(Nc3ncc4cnn([C@@H]5CCC[C@@H](C(N)=O)C5)c4n3)cc2C(F)(F)F)C1 [Example 180, (1R,3R)-3-(6-((2-methyl-5-(trifluoromethyl)-1,2,3,4-tetrahydroisoquinolin-7-yl)amino)-1H-pyrazolo[3,4-d]pyrimidin-1-yl)cyclohexane-1-carboxamide] | < 100 |
| COc1nc2c(cc1Nc1ncc3cnn([C@@H]4CCC[C@@H](C(N)=O)C4)c3n1)CN(C)CC2 [Example 181, (1R,3R)-3-(6-((2-methoxy-6-methyl-5,6,7,8-tetrahydro-1,6-naphthyridin-3-yl)amino)-1H-pyrazolo[3,4-d]pyrimidin-1-yl)cyclohexane-1-carboxamide Mesylate] | < 100 |
| CC(=O)N1CCC[C@H]1Cn1ncc2cnc(Nc3cc4c(cc3C)CCN(C)C4)nc21 [Example 183, (S)-1-(2-((6-((2,6-dimethyl-1,2,3,4-tetrahydroisoquinolin-7-yl)amino)-1H-pyrazolo[3,4-d]pyrimidin-1-yl)methyl)pyrrolidin-1-yl)ethan-1-one] | < 100 |
| COc1cc2c(cc1Nc1ncc3cnn(C[C@@H]4CCCN4C(C)=O)c3n1)[C@@H](C)N(C)CC2 [Example 184, 1-((S)-2-((6-(((R)-6-methoxy-1,2-dimethyl-1,2,3,4-tetrahydroisoquinolin-7-yl)amino)-1H-pyrazolo[3,4-d]pyrimidin-1-yl)methyl)pyrrolidin-1-yl)ethan-1-one] | < 100 |
| COc1cc2c(cc1Nc1ncc3cnn(C[C@@H]4CCCN4C(C)=O)c3n1)[C@H](C)N(C)CC2 [Example 185, 1-((S)-2-((6-(((S)-6-methoxy-1,2-dimethyl-1,2,3,4-tetrahydroisoquinolin-7-yl)amino)-1H-pyrazolo[3,4-d]pyrimidin-1-yl)methyl)pyrrolidin-1-yl)ethan-1-one hydrochloride] | < 100 |
| COc1cc2c(cc1Nc1ncc3cnn(C[C@@H]4CCCN4C(=O)C(F)F)c3n1)CN(C)CC2 [Example 186, (S)-2,2-difluoro-1-(2-((6-((6-methoxy-2-methyl-1,2,3,4-tetrahydroisoquinolin-7-yl)amino)-1H-pyrazolo[3,4-d]pyrimidin-1-yl)methyl)pyrrolidin-1-yl)ethan-1-one] | < 100 |
| COc1nc2c(cc1Nc1ncc3cnn([C@H]4CC[C@H](O)CC4)c3n1)CN(C)CC2 [Example 187, (1r,4r)-4-(6-((2-methoxy-6-methyl-5,6,7,8-tetrahydro-1,6-naphthyridin-3-yl)amino)-1H-pyrazolo[3,4-d]pyrimidin-1-yl)cyclohexan-1-ol] | < 100 |

Now from value to compound:

| IC50 [nM] | Structure (SMILES) |
| --- | --- |
| < 100 | COc1cc2c(cc1Nc1ncc3cnn([C@H]4CC[C@H](O)CC4)c3n1)CN(CCF)CC2 [Example 153, trans-4-(6-((2-(2-fluoroethyl)-6-methoxy-1,2,3,4-tetrahydroisoquinolin-7-yl)amino)-1H-pyrazolo[3,4-d]pyrimidin-1-yl)cyclohexan-1-ol] |
| < 100 | COc1cc2c(cc1Nc1ncc3cnn([C@H]4CC[C@H](O)CC4)c3n1)CN(CC(F)F)CC2 [Example 154, trans-4-(6-((2-(2,2-difluoroethyl)-6-methoxy-1,2,3,4-tetrahydroisoquinolin-7-yl)amino)-1H-pyrazolo[3,4-d]pyrimidin-1-yl)cyclohexan-1-ol] |
| < 100 | CCN1CCc2cc(OC)c(Nc3ncc4cnn([C@H]5CC[C@H](O)CC5)c4n3)cc2C1 [Example 155, trans-4-(6-((2-ethyl-6-methoxy-1,2,3,4-tetrahydroisoquinolin-7-yl)amino)-1H-pyrazolo[3,4-d]pyrimidin-1-yl)cyclohexan-1-ol] |
| < 100 | COc1cc2c(cc1Nc1ncc3cnn([C@H]4CC[C@H](O)CC4)c3n1)CN(CCO)CC2 [Example 156, trans-4-(6-((2-(2-hydroxyethyl)-6-methoxy-1,2,3,4-tetrahydroisoquinolin-7-yl)amino)-1H-pyrazolo[3,4-d]pyrimidin-1-yl)cyclohexan-1-ol] |
| < 100 | COc1cc2c(cc1Nc1ncc3cnn(C[C@@H]4CCC[C@H]4C(=O)O)c3n1)CN(C)CC2 [Example 157, (1R,2R)-2-[[6-[(6-methoxy-2-methyl-3,4-dihydro-1H-isoquinolin-7-yl)amino]pyrazolo[3,4-d]pyrimidin-1-yl]methyl]cyclopentanecarboxylic Acid] |
| < 100 | COc1cc2c(cc1Nc1ncc3cnn(C[C@H]4CCC[C@@H]4C(=O)O)c3n1)CN(C)CC2 [Example 158, (1S,2S)-2-[[6-[(6-methoxy-2-methyl-3,4-dihydro-1H-isoquinolin-7-yl)amino]pyrazolo[3,4-d]pyrimidin-1-yl]methyl]cyclopentanecarboxylic Acid] |
| < 100 | COc1cc2c(cc1Nc1ncc3cnn(C[C@@H]4[C@@H](C)[C@@H](O)CN4C(C)=O)c3n1)CN(C)CC2 [Example 163, 1-[(2S,3R,4S)-4-hydroxy-2-[[6-[(6-methoxy-2-methyl-3,4-dihydro-1H-isoquinolin-7-yl)amino]pyrazolo[3,4-d]pyrimidin-1-yl]methyl]-3-methyl-pyrrolidin-1-yl]ethenone] |
| < 100 | COc1cc2c(cc1Nc1ncc3cnn(C[C@@H]4[C@@H](C)[C@H](O)CN4C(C)=O)c3n1)CN(C)CC2 [Example 164, 1-[(2S,3R,4R)-4-hydroxy-2-[[6-[(6-methoxy-2-methyl-3,4-dihydro-1H-isoquinolin-7-yl)amino]pyrazolo[3,4-d]pyrimidin-1-yl]methyl]-3-methyl-pyrrolidin-1-yl]ethenone] |
| < 100 | COc1cc2c(cc1Nc1ncc3cnn([C@H]4CC[C@H](CO)CC4)c3n1)CN(CCO)CC2 [Example 167, 2-[7-[[1-[4-(hydroxymethyl)cyclohexyl]pyrazolo[3,4-d]pyrimidin-6-yl]amino]-6-methoxy-3,4-dihydro-1H-isoquinolin-2-yl]ethanol] |
| < 100 | CCN1CCc2cc(OC)c(Nc3ncc4cnn([C@H]5CC[C@H](CO)CC5)c4n3)cc2C1 [Example 168, [4-[6-[(2-ethyl-6-methoxy-3,4-dihydro-1H-isoquinolin-7-yl)amino]pyrazolo[3,4-d]pyrimidin-1-yl]cyclohexyl]methanol] |
| < 100 | COc1cc2c(cc1Nc1ncc3cnn([C@H]4CC[C@H](CO)CC4)c3n1)CN(CCF)CC2 [Example 169, [4-[6-[[2-(2-fluoroethyl)-6-methoxy-3,4-dihydro-1H-isoquinolin-7-yl]amino]pyrazolo[3,4-d]pyrimidin-1-yl]cyclohexyl]methanol] |
| < 100 | COc1nc2c(cc1Nc1ncc3cnn([C@H]4CC[C@H](CO)CC4)c3n1)CN(C)CC2 [Example 170] |
| < 100 | COc1cc2c(cc1Nc1ncc3cnn(C[C@@H]4CC[C@H](C)N4C(C)=O)c3n1)CN(C)CC2 [Example 171, 1-[(2S,5S)-2-[[6-[(6-methoxy-2-methyl-3,4-dihydro-1H-isoquinolin-7-yl)amino]pyrazolo[3,4-d]pyrimidin-1-yl]methyl]-5-methyl-pyrrolidin-1-yl]ethanone] |
| < 100 | COc1nc2c(cc1Nc1ncc3cnn(C[C@@H]4CC[C@H](C)N4C(C)=O)c3n1)CN(C)CC2 [Example 172, 1-[(2S,5S)-2-[[6-[(2-methoxy-6-methyl-7,8-dihydro-5H-1,6-naphthyridin-3-yl)amino]pyrazolo[3,4-d]pyrimidin-1-yl]methyl]-5-methyl-pyrrolidin-1-yl]ethenone] |
| < 100 | COc1nc2c(cc1Nc1ncc3cnn(C[C@@H]4CC[C@@H](C)N4C(C)=O)c3n1)CN(C)CC2 [Example 173, 1-[(2S,5R)-2-[[6-[(2-methoxy-6-methyl-7,8-dihydro-5H-1,6-naphthyridin-3-yl)amino]pyrazolo[3,4-d]pyrimidin-1-yl]methyl]-5-methyl-pyrrolidin-1-yl]ethenone Methanesulfonic Acid] |
| < 100 | COc1cc2c(cc1Nc1ncc3cnn(C[C@@H]4CC[C@@H](C)N4C(C)=O)c3n1)CN(C)CC2 [Example 174] |
| < 100 | COC[C@H]1CC[C@H](n2ncc3cnc(Nc4cc5c(cc4OC)CCN(C)C5)nc32)CC1 [Example 175, 6-methoxy-N-[trans-1-[4-(methoxymethyl)cyclohexyl]pyrazolo[3,4-d]pyrimidin-6-yl]-2-methyl-3,4-dihydro-1H-isoquinolin-7-amine] |

— patent publication US11918582B2 (RAPT Therapeutics, Inc., priority 2021, dated 2024)
